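Tested at 5 concentrations; 48 h exposure; 96-well plates; endpoints linearly interpolated, else capped at highest concentration. At the GI50, growth is halved. TGI denotes the concentration required for complete inhibition of growth.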
Key:
Assay in all cases: DTP human tumour cell line panel, 48 h
A549 NSCLC = system: A549 NSCLC
HOP-92 NSCLC = system: HOP-92 NSCLC
NCI-H226 lung = system: NCI-H226 lung
TK-10 renal = system: TK-10 renal
KM12 colon = system: KM12 colon
SF-268 CNS = system: SF-268 CNS
HCC-2998 colon = system: HCC-2998 colon
UACC-62 melanoma = system: UACC-62 melanoma
HCT-116 colon = system: HCT-116 colon

SMILES | TGI (A549 NSCLC) [µM] | TGI (HOP-92 NSCLC) [µM] | TGI (NCI-H226 lung) [µM] | TGI (TK-10 renal) [µM] | TGI (KM12 colon) [µM] | TGI (SF-268 CNS) [µM] | TGI (HCC-2998 colon) [µM] | TGI (UACC-62 melanoma) [µM] | TGI (HCT-116 colon) [µM] | GI50 (A549 NSCLC) [µM] | GI50 (HOP-92 NSCLC) [nM] | GI50 (NCI-H226 lung) [µM] | GI50 (UACC-62 melanoma) [µM] | GI50 (TK-10 renal) [µM] | GI50 (KM12 colon) [µM] | GI50 (SF-268 CNS) [nM] | GI50 (HCC-2998 colon) [nM] | GI50 (HCT-116 colon) [µM]
Cc1[nH]c2cc([N+](=O)[O-])ccc2c1[N+](=O)[O-] | 69.6 | 23.8 | 71.8 | 75.8 | 67.6 | > 100 | 52.7 | – | – | – | – | – | – | – | – | – | – | –
CN1CCN(c2nc(N)c(Br)c(Cl)n2)CC1 | > 100 | > 100 | – | > 100 | > 100 | > 100 | > 100 | > 100 | – | – | – | – | – | – | – | – | – | –
O=C(N/C(=C\c1ccc(/C=C(\NC(=O)c2ccccc2)c2nc3c(O)nc(S)nc3[nH]2)cc1)c1nc2c(O)nc(S)nc2[nH]1)c1ccccc1 | > 100 | > 100 | – | > 100 | > 100 | > 100 | > 100 | > 100 | > 100 | – | – | – | – | – | – | – | – | –
N#Cc1ccc(C2SCc3nc4ccccc4n32)cc1 (stereo not given) | > 100 | – | – | > 100 | > 100 | > 100 | > 100 | > 100 | > 100 | – | – | – | – | – | – | – | – | –
CC1=C2C=CC(=O)C[C@@]2(C)CCC1 | > 100 | > 100 | – | > 100 | > 100 | > 100 | > 100 | > 100 | > 100 | – | – | – | – | – | – | – | – | –
COC(=O)c1cc2cc(/C=C3/SC(=S)N(N(C(C)=O)C(C)=O)C3=O)oc2n1Cc1ccccc1 | 45.9 | > 100 | 45.2 | 35.1 | > 100 | > 100 | 40.5 | 33 | – | 18.1 | 44000 | 21.9 | 14.4 | 17.4 | 27.8 | 48200 | 17300 | –
CCOCCOCCOCCOCCOCCOCCOCCOCCOCCO (tested in a mixture with another compound) | 8.66 | 2.9 | 12.5 | 12.2 | 4.67 | 20.8 | 6.25 | – | 4.68 | 1.21 | 643 | 1.22 | – | 1.53 | 1.2 | 1610 | 1650 | 1.01
CCN(CC)C(=S)SS(C)(=O)=O | – | 54.2 | 31.3 | 32.2 | 31.7 | – | – | 30 | 43.1 | – | – | – | – | – | – | – | – | –
CC(=O)C1C(=O)C(=O)N(CCN2C(=O)C(=O)C(C(C)=O)C2=O)C1=O (stereo not given) | – | > 100 | > 100 | > 100 | > 100 | > 100 | > 100 | > 100 | > 100 | – | – | – | – | – | – | – | – | –
CCOC(=O)C1C(=O)CC(=O)C2CCCCC21 (stereo not given) | > 100 | > 100 | – | > 100 | > 100 | > 100 | – | > 100 | > 100 | – | – | – | – | – | – | – | – | –
O=C(NCCNCCO)c1ccc(Nc2nc3ccccc3c3occc23)cc1 | 30.1 | 18.4 | – | 6.67 | 23.8 | > 100 | 5.27 | 30.8 | 23.3 | 15.3 | 3010 | – | 16.6 | 2.11 | 8.99 | > 100000 | 2140 | 10.1
O=C1C(Cl)=C(NCCCN(CCCNC2=C(Cl)C(=O)c3ccccc3C2=O)C2=C(Cl)C(=O)c3ccccc3C2=O)C(=O)c2ccccc21 | > 100 | 14 | 35.1 | 36.9 | 12.8 | 18.8 | 6.37 | 4.69 | – | 3.43 | 2230 | 17.3 | 1.98 | 17.9 | 3 | 2760 | 2450 | –
COc1cnccc1Nc1nc(-c2nn(Cc3c(F)cc(OCCO)cc3F)c3ccccc23)ncc1OC | 10.3 | > 100 | 31.9 | 27.7 | 63.6 | 15.9 | > 100 | – | 20.2 | 2.93 | 634 | 12.4 | – | 14.5 | 3.88 | 3850 | 10000 | 3.64
CN(CCCCCl)P(=O)(OCc1ccc([N+](=O)[O-])o1)OCC1OC(n2cc([N+](=O)[O-])c(=O)[nH]c2=O)CC1O (stereo not given) | > 100 | – | > 100 | > 100 | > 100 | > 100 | > 100 | > 100 | > 100 | > 100 | – | 42.3 | 49.2 | > 100 | > 100 | 3000 | 37700 | 66.5
COc1cc(C(=O)O[C@H](C(=O)NCCCCNC(=O)[C@@H](OC(=O)c2cc(OC)cc3c(C)cccc23)[C@]2(C)CO2)[C@]2(C)CO2)c2cccc(C)c2c1 | 0.699 | 0.22 | 2.07 | 1.36 | 0.802 | 0.0619 | 0.343 | 3.64 | – | 0.26 | 45.2 | 0.62 | 1.5 | 0.469 | 0.139 | 10.1 | 44.2 | –
